Laboratory results from the supplement of paper PMC11061612.

How the values were obtained:
[1] = test system: 8505C (Thyroid Gland Carcinoma); assay: Bliss excess, mean over the matrix (fraction); higher = more synergy
How it was run: (§1)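 Cell lines grown in DMEM/F12 or RPMI with 10% FBS were plated in 1536-well plates and held 24 hours at 37°C, 5% CO2 before 72 hours of exposure to two-drug dose matrices, with DMSO typically at 0.2%. CellTiter-Glo 2.0 luminescence gave viability, which was converted to inhibition. Vehicle wells were set to 0 and blank wells to 1. Combination Emax is the second-highest inhibition in the matrix, and Bliss excess is the observed combination effect minus the expected EA + EB − EA·EB, where EA and EB are the single-agent effects.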

[2] = test system: CHSA8926 (Chondrosarcoma); assay: as above
How it was run: as §1

[3] = test system: DAN-G (Pancreatic Carcinoma); assay: as above
How it was run: as §1

[4] = test system: ESO51 (Esophageal Adenocarcinoma); assay: as above
How it was run: as §1

G-361 (Melanoma) [5] = assay: as above
How it was run: as §1

[6] = test system: H9 (T-Cell Non-Hodgkin's Lymphoma); assay: as above
How it was run: as §1

[7] = test system: HCC1187 (Breast Carcinoma); assay: as above
How it was run: as §1

[8] = test system: HCC1419 (Breast Carcinoma); assay: as above
How it was run: as §1

[9] = test system: IM-95 (Gastric Carcinoma); assay: as above
How it was run: as §1

[10] = test system: JHH-4 (Hepatocellular Carcinoma); assay: as above
How it was run: as §1

[11] = test system: KMS-12-BM (Plasma Cell Myeloma); assay: as above
How it was run: as §1

[12] = test system: KY821 (Acute Myeloid Leukemia); assay: as above
How it was run: as §1

[13] = test system: MOLM-13 (Acute Myeloid Leukemia); assay: as above
How it was run: as §1

[14] = test system: NCI-H661 (Non-Small Cell Lung Carcinoma); assay: as above
How it was run: as §1

[15] = test system: PC-3 (Prostate Carcinoma); assay: as above
How it was run: as §1

RD (Rhabdomyosarcoma) [16] = assay: as above
How it was run: as §1

[17] = test system: RPMI-8226 (Plasma Cell Myeloma); assay: as above
How it was run: as §1

[18] = test system: SK-GT-2 (Gastric Carcinoma); assay: as above
How it was run: as §1

[19] = test system: SNU-398 (Hepatocellular Carcinoma); assay: as above
How it was run: as §1

[20] = test system: SU-DHL-5 (B-Cell Non-Hodgkin's Lymphoma); assay: as above
How it was run: as §1

[21] = test system: SUP-B15 (B-Lymphoblastic Leukemia); assay: as above
How it was run: as §1

[22] = test system: 8505C (Thyroid Gland Carcinoma); assay: combination Emax (second highest fraction inhibited in the dose matrix, 72 h); higher = more inhibition; extreme values may be limits of the assay
How it was run: as §1

[23] = test system: CHSA8926 (Chondrosarcoma); assay: as above
How it was run: as §1

[24] = test system: DAN-G (Pancreatic Carcinoma); assay: as above
How it was run: as §1

[25] = test system: ESO51 (Esophageal Adenocarcinoma); assay: as above
How it was run: as §1

G-361 (Melanoma) [26] = assay: as above
How it was run: as §1

[27] = test system: H9 (T-Cell Non-Hodgkin's Lymphoma); assay: as above
How it was run: as §1

[28] = test system: HCC1187 (Breast Carcinoma); assay: as above
How it was run: as §1

[29] = test system: HCC1419 (Breast Carcinoma); assay: as above
How it was run: as §1

[30] = test system: IM-95 (Gastric Carcinoma); assay: as above
How it was run: as §1

[31] = test system: JHH-4 (Hepatocellular Carcinoma); assay: as above
How it was run: as §1

[32] = test system: KMS-12-BM (Plasma Cell Myeloma); assay: as above
How it was run: as §1

[33] = test system: KY821 (Acute Myeloid Leukemia); assay: as above
How it was run: as §1

[34] = test system: MOLM-13 (Acute Myeloid Leukemia); assay: as above
How it was run: as §1

[35] = test system: NCI-H661 (Non-Small Cell Lung Carcinoma); assay: as above
How it was run: as §1

[36] = test system: PC-3 (Prostate Carcinoma); assay: as above
How it was run: as §1

RD (Rhabdomyosarcoma) [37] = assay: as above
How it was run: as §1

[38] = test system: RPMI-8226 (Plasma Cell Myeloma); assay: as above
How it was run: as §1

[39] = test system: SK-GT-2 (Gastric Carcinoma); assay: as above
How it was run: as §1

[40] = test system: SNU-398 (Hepatocellular Carcinoma); assay: as above
How it was run: as §1

[41] = test system: SU-DHL-5 (B-Cell Non-Hodgkin's Lymphoma); assay: as above
How it was run: as §1

[42] = test system: SUP-B15 (B-Lymphoblastic Leukemia); assay: as above
How it was run: as §1
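Throughout, for Bliss excess, mean over the matrix: after 72 h of two-drug dosing.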

Structure (SMILES): COc1nnc2ccc(N3CCC(c4ccc(OCCN5CCN(C)C(=O)[C@H]5C)cc4)CC3)nn12 [AZD5153] + CN(CC[C@H](CSC1=CC=CC=C1)NC2=C(C=C(C=C2)S(=O)(=O)NC(=O)C3=CC=C(C=C3)N4CCC(CC4)[C@H](C5=CC=CC=C5C6=CC=C(C=C6)Cl)O)S(=O)(=O)C(F)(F)F)CCO [AZD4320] (first compound max 1 µM, 7x7, partner max 1 µM)
- Bliss excess [1]: 0.0185
- Bliss excess [2]: -0.0781
- Bliss excess [3]: 0.0358
- Bliss excess [4]: -0.0079
- Bliss excess (G-361 (Melanoma) [5]): 0.0314
- Bliss excess [6]: -0.0291
- Bliss excess [7]: 0.0165
- Bliss excess [8]: -0.0403
- Bliss excess [9]: -0.0568
- Bliss excess [10]: 0.0556
- Bliss excess [11]: 0.0143
- Bliss excess [12]: 0.0111
- Bliss excess [13]: 0.0205
- Bliss excess [14]: 0.0102
- Bliss excess [15]: 0.0691
- Bliss excess (RD (Rhabdomyosarcoma) [16]): 0.0526
- Bliss excess [17]: -0.0027
- Bliss excess [18]: 0.0412
- Bliss excess [19]: -0.0093
- Bliss excess [20]: -0.0155
- Bliss excess [21]: -0.0077
- combination Emax [22]: 0.441
- combination Emax [23]: 0.695
- combination Emax [24]: 0.345
- combination Emax [25]: 0.666
- combination Emax (G-361 (Melanoma) [26]): 0.67
- combination Emax [27]: 1
- combination Emax [28]: 0.366
- combination Emax [29]: 0.277
- combination Emax [30]: 0.548
- combination Emax [31]: 0.36
- combination Emax [32]: 1
- combination Emax [33]: 1
- combination Emax [34]: 1
- combination Emax [35]: 0.272
- combination Emax [36]: 0.347
- combination Emax (RD (Rhabdomyosarcoma) [37]): 0.939
- combination Emax [38]: 0.996
- combination Emax [39]: 0.346
- combination Emax [40]: 0.451
- combination Emax [41]: 0.994
- combination Emax [42]: 1

Structure (SMILES): CC(=O)c1c(C)c2cnc(Nc3ccc(N4CCNCC4)cn3)nc2n(C2CCCC2)c1=O [Palbociclib] + CN(CC[C@H](CSC1=CC=CC=C1)NC2=C(C=C(C=C2)S(=O)(=O)NC(=O)C3=CC=C(C=C3)N4CCC(CC4)[C@H](C5=CC=CC=C5C6=CC=C(C=C6)Cl)O)S(=O)(=O)C(F)(F)F)CCO [AZD4320] (first compound max 10 µM, 7x7, partner max 1 µM)
- Bliss excess [1]: -0.0924
- Bliss excess [2]: -0.0753
- Bliss excess [3]: -0.0408
- Bliss excess [4]: -0.0853
- Bliss excess (G-361 (Melanoma) [5]): -0.0222
- Bliss excess [6]: -0.0114
- Bliss excess [7]: -0.0429
- Bliss excess [9]: -0.133
- Bliss excess [10]: -0.0051
- Bliss excess [11]: 0.0159
- Bliss excess [12]: -0.0069
- Bliss excess [13]: -0.0259
- Bliss excess [14]: -0.0643
- Bliss excess [15]: -0.0472
- Bliss excess (RD (Rhabdomyosarcoma) [16]): 0.0323
- Bliss excess [17]: -0.0531
- Bliss excess [18]: -0.0151
- Bliss excess [19]: -0.0484
- Bliss excess [20]: -0.0381
- Bliss excess [21]: -0.0515
- combination Emax [22]: 0.0974
- combination Emax [23]: 0.741
- combination Emax [24]: 0.288
- combination Emax [25]: 0.15
- combination Emax (G-361 (Melanoma) [26]): 0.598
- combination Emax [27]: 0.983
- combination Emax [28]: 0.239
- combination Emax [30]: 0.471
- combination Emax [31]: 0.703
- combination Emax [32]: 1
- combination Emax [33]: 1
- combination Emax [34]: 1
- combination Emax [35]: 0.107
- combination Emax [36]: 0.159
- combination Emax (RD (Rhabdomyosarcoma) [37]): 0.875
- combination Emax [38]: 0.95
- combination Emax [39]: 0.531
- combination Emax [40]: 0.308
- combination Emax [41]: 1
- combination Emax [42]: 1
